This passage reports IC50 results from patent US10131664B2 (Celgene Quanticel Research, Inc., priority 2013, dated 2018).

Structures can show the parent of a compound that is named as a salt. Some results are limits rather than exact numbers.

One test concerns THP-1 (AML) cells. Kind of test: LSD1 CD11b cellular assay (flow cytometry). The test is classed as cell-based. The note with it: Homo sapiens, 96 h; CD11b expression in THP-1 (AML) cells, flow cytometry, 4 days incubation; read-out: Cellular IC50. Summed up: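 THP-1 AML cells treated with serially diluted compound (0.2% DMSO final) for 4 days at 37 °C, 5% CO2. CD11b expression measured by flow cytometry with DAPI staining; IC50 derived from percent CD11b-positive cells versus inhibitor concentration.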
A general note: Flow cytometry measures light scatter and fluorescence of single cells or particles in a stream.

In another test the target is full-length human LSD1 (Homo sapiens (Human), UniProt O60341). Put plainly: In vitro enzyme inhibition assay LSD-1 (TR-FRET). The test is classed as biochemical. Particulars: TR-FRET, 0.1 nM LSD1, 50 nM H3K4me1-biotin peptide, 2 μM FAD, pH7.3; read-out: LSD1 IC50. The procedure: This assay determines the ability of a test compound to inhibit LSD1 demethylase activity.
The enzymatic assay of LSD1 activity is based on Time Resolved-Fluorescence Resonance Energy Transfer (TR-FRET) detection.
The ability of the compounds disclosed herein to inhibit LSD1 activity was quantified and the respective IC50 value was determined. Table 5 provides the IC50 values of various substituted heterocyclic compounds disclosed herein.
Background: TR-FRET usually uses a lanthanide donor and a delayed reading to cut background.

As for `COc1ccc(-c2nc3ccn(CC4CCNC4)c3cc2-c2ccc(C#N)c(F)c2)cc1F` (stereo in doubt) [Example 55, 4-{1-[((3R)pyrrolidin-3-yl)methyl]-5-(3-fluoro-4-methoxyphenyl)pyrrolo[3,2-b]pyridin-6-yl}-2-fluorobenzenecarbonitrile, HCl salt], the IC50 in the test on THP-1 (AML) cells and at full-length human LSD1 was less than 100 nM throughout.
As to `Cn1cnc2cc(-c3cnc(N4CCC(N)CC4)nc3-c3ccc(C#N)cc3)c(F)c(F)c21` [Example 126, 4-[2-(4-aminopiperidin-1-yl)-5-(6,7-difluoro-1-methylbenzimidazol-5-yl)pyrimidin-4-yl]benzonitrile], the IC50 in the test on THP-1 (AML) cells and on full-length human LSD1 was less than 100 nM in each case.
Take `CNc1nc(N2CCCNCC2)nc(-c2ccc(C#N)c(F)c2)c1-c1ccc2nn(C)cc2c1` [Example 162, 4-[2-(1,4-diazepan-1-yl)-5-(2-methyl-2H-indazol-5-yl)-6-(methylamino)pyrimidin-4-yl]-2-fluorobenzonitrile]: the IC50 in the test on THP-1 (AML) cells and at full-length human LSD1 was less than 100 nM each time.
For `N#Cc1ccc(-c2cc3c(ccn3C[C@H]3CCNC3)nc2-c2ccc(F)cc2)cc1` [Example 5, 4-[5-(4-fluorophenyl)-1-[[(3S)-pyrrolidin-3-yl]methyl]pyrrolo[3,2-b]pyridin-6-yl]benzonitrile], the IC50 was 1000 to 10000 nM in the test with THP-1 (AML) cells and less than 100 nM on full-length human LSD1.
For `Cc1ccc(-c2cnc(N3CC4CNCC(C4)C3)nc2-c2ccc(C#N)cc2)cc1` [Example 119, 4-[2-(3,7-diazabicyclo[3.3.1]nonan-3-yl)-5-(4-methylphenyl)pyrimidin-4-yl]benzonitrile], in that order: 100 to 1000 nM and less than 100 nM.
`Cn1cc2cc(-c3cnc(N4CCNCC4)nc3-c3ccc(C#N)c(F)c3)ccc2n1` [Example 109, 2-fluoro-4-[5-(2-methylindazol-5-yl)-2-piperazin-1-ylpyrimidin-4-yl]benzonitrile]: the results for the IC50 in the test with THP-1 (AML) cells and on full-length human LSD1 were 100 to 1000 nM and less than 100 nM, respectively.
Take `CNc1nc(N2CCC(N)CC2)nc(-c2ccc(C#N)c(F)c2)c1-c1cnc2c(cnn2C)c1` [Example 175, 4-[2-(4-aminopiperidin-1-yl)-5-{1-methyl-1H-pyrazolo[3,4-b]pyridin-5-yl}-6-(methylamino)pyrimidin-4-yl]-2-fluorobenzonitrile]: the IC50 with THP-1 (AML) cells and on full-length human LSD1 was less than 100 nM throughout.
Consider `Cn1cnc2cc(-c3cnc(N4CCC(N)CC4)nc3-c3ccc(C#N)cc3)c(F)cc21` [Example 125, 4-[2-(4-aminopiperidin-1-yl)-5-(6-fluoro-1-methylbenzimidazol-5-yl)pyrimidin-4-yl]benzonitrile], for which the half-maximal inhibitory concentration (IC50) in the test with THP-1 (AML) cells and on full-length human LSD1 was less than 100 nM each time.
With `Cn1nnc2cc(-c3cnc(N4CCC(N)CC4)nc3-c3ccc(C#N)c(F)c3)c(F)cc21` [Example 105, 4-[2-(4-aminopiperidin-1-yl)-5-(6-fluoro-1-methylbenzotriazol-5-yl)pyrimidin-4-yl]-2-fluorobenzonitrile], the IC50 in the test with THP-1 (AML) cells and at full-length human LSD1 was less than 100 nM each time.
With `Cn1cnc2cc(-c3cnc(N4CCC5CNCC5CC4)nc3-c3ccc(C#N)cc3)c(F)c(F)c21` (stereo not shown) [Example 130], the IC50 with THP-1 (AML) cells and at full-length human LSD1 was less than 100 nM throughout.
Regarding `Cn1cc2cc(-c3cnc(N4CCC(N)C(O)C4)nc3-c3ccc(C#N)c(F)c3)ccc2n1` (stereo not shown) [Example 107, 4-[2-(4-amino-3-hydroxypiperidin-1-yl)-5-(2-methylindazol-5-yl)pyrimidin-4-yl]-2-fluorobenzonitrile], the IC50 in the test with THP-1 (AML) cells and on full-length human LSD1 was less than 100 nM throughout.
As for `N#Cc1ccc(-c2nc(N3CCC(N)CC3)ncc2C#CC2(O)CCOC2)cc1F` (stereo not shown) [Example 94, 4-[2-(4-aminopiperidin-1-yl)-5-[2-(3-hydroxyoxolan-3-yl)ethynyl]pyrimidin-4-yl]-2-fluorobenzonitrile], the IC50 with THP-1 (AML) cells and at full-length human LSD1 was less than 100 nM each time.
Turning to `Cn1ncc2cc(-c3cnc(N4CCC(N)CC4)nc3-c3ccc(C#N)c(F)c3)cnc21` [Example 145, 4-[2-(4-aminopiperidin-1-yl)-5-(1-methylpyrazolo[3,4-b]pyridin-5-yl)pyrimidin-4-yl]-2-fluorobenzonitrile], the IC50 with THP-1 (AML) cells and on full-length human LSD1 was less than 100 nM each time.
In the case of `CNc1nc(N2CCC(N)CC2)nc(-c2ccc(C#N)c(F)c2)c1-c1ccc(N(C)C)nc1` [Example 169, 4-[2-(4-aminopiperidin-1-yl)-5-[6-(dimethylamino)pyridin-3-yl]-6-(methylamino)pyrimidin-4-yl]-2-fluorobenzonitrile], the IC50 in the test with THP-1 (AML) cells and on full-length human LSD1 was less than 100 nM each time.
For `Cn1cc2cc(-c3cnc(N4CCC(N)CC4)nc3-c3ccc(C#N)cc3)ncc2n1` [Example 73, 4-[2-(4-aminopiperidin-1-yl)-5-(2-methylpyrazolo[3,4-c]pyridin-5-yl)pyrimidin-4-yl]benzonitrile], the figures for the IC50 in the test on THP-1 (AML) cells and at full-length human LSD1 were 100 to 1000 nM and less than 100 nM, respectively.
For the compound `N#Cc1ccc(-c2cc3c(ccn3C[C@H]3CNCCO3)nc2-c2ccc(F)cc2)cc1` [Example 11, 4-[5-(4-fluorophenyl)-1-[[(2R)-morpholin-2-yl]methyl]pyrrolo[3,2-b]pyridin-6-yl]benzonitrile], the IC50 was 1000 to 10000 nM in the test with THP-1 (AML) cells and less than 100 nM on full-length human LSD1.
In the case of `CNc1nc(N2CCC(N)CC2)nc(-c2ccc(C#N)c(F)c2)c1-c1ccc2nn(C)cc2c1` [Example 160, 4-[2-(4-aminopiperidin-1-yl)-5-(2-methyl-2H-indazol-5-yl)-6-(methylamino)-pyrimidin-4-yl]-2-fluorobenzonitrile], the concentration for half-maximal inhibition (IC50) in the test with THP-1 (AML) cells and at full-length human LSD1 was less than 100 nM in each case.
On to `Cc1ccc(-c2cnc(OC[C@@H]3CCNC3)nc2-c2ccc(C#N)cc2)cc1` [Example 20, 4-[5-(4-methylphenyl)-2-[(3R)-pyrrolidin-3-ylmethoxy]pyrimidin-4-yl]benzonitrile], for which the IC50 is 100 to 1000 nM with THP-1 (AML) cells and less than 100 nM on full-length human LSD1.
On to `Cn1cc2cc(-c3cnc(N4CCC(N)CC4)nc3-c3ccc(C#N)cc3)ccc2n1` [Example 128, 4-[2-(4-aminopiperidin-1-yl)-5-(2-methylindazol-5-yl)pyrimidin-4-yl]benzonitrile], for which the IC50 with THP-1 (AML) cells and at full-length human LSD1 was less than 100 nM throughout.
Regarding `Cc1ccc(-c2cc(NCC3CCNC3)nn2-c2ccc(C#N)cc2)cc1` (stereo not shown) [Example 43, 4-[5-(4-methylphenyl)-3-(pyrrolidin-3-ylmethylamino)pyrazol-1-yl]benzonitrile], the IC50 in the test on THP-1 (AML) cells and on full-length human LSD1 was less than 100 nM throughout.
`N#Cc1ccc(-c2cc3c(ccn3C[C@H]3CCNC3)nc2Cl)cc1` [Example 4, 4-[5-chloro-1-[[(3S)-pyrrolidin-3-yl]methyl]pyrrolo[3,2-b]pyridin-6-yl]benzonitrile]: the IC50 with THP-1 (AML) cells fell in the range of 1000 to 10000 nM; on full-length human LSD1, 100 to 1000 nM.
Take `N#Cc1ccc(-c2nc(N3CCC(N)CC3)ncc2-c2cnc(NC3CC3)nc2)cc1F` [Example 141, 4-[2-(4-aminopiperidin-1-yl)-5-[2-(cyclopropylamino)pyrimidin-5-yl]pyrimidin-4-yl]-2-fluorobenzonitrile]: the concentration for half-maximal inhibition (IC50) with THP-1 (AML) cells and on full-length human LSD1 was less than 100 nM in each case.
Turning to `Cn1nccc1C#Cc1cnc(N2CCC(N)CC2)nc1-c1ccc(C#N)c(F)c1` [Example 106, 4-[2-(4-aminopiperidin-1-yl)-5-[2-(2-methylpyrazol-3-yl)ethynyl]pyrimidin-4-yl]-2-fluorobenzonitrile], the IC50 in the test with THP-1 (AML) cells was 100 to 1000 nM; on full-length human LSD1, less than 100 nM.
Regarding `Cn1cnc2cc(-c3cnc(N4CCC(N)CC4)nc3-c3ccc(C#N)c(F)c3)c(F)cc21` [Example 133, 4-[2-(4-aminopiperidin-1-yl)-5-(6-fluoro-1-methylbenzimidazol-5-yl)pyrimidin-4-yl]-2-fluorobenzonitrile], the IC50 in the test with THP-1 (AML) cells and on full-length human LSD1 was less than 100 nM throughout.
Consider `N#Cc1ccc(-c2cc3c(ccn3C[C@@H]3CCNC3)nc2N2CCOCC2)cc1` [Example 6, 4-[5-morpholin-4-yl-1-[[(3R)-pyrrolidin-3-yl]methyl]pyrrolo[3,2-b]pyridin-6-yl]benzonitrile], for which the IC50 in the test on THP-1 (AML) cells lay in the range of 1000 to 10000 nM; on full-length human LSD1, 100 to 1000 nM.
The corresponding values for `Cn1ncc2cc(-c3cnc(N4CCC(N)CC4)nc3-c3ccc(C#N)cc3)ncc21` [Example 69, 4-[2-(4-aminopiperidin-1-yl)-5-(1-methylpyrazolo[3,4-c]pyridin-5-yl)pyrimidin-4-yl]benzonitrile] are 100 to 1000 nM and less than 100 nM.
With `Cc1ccc(-c2cnc(N3CC[C@@H]4CNC[C@@H]4CC3)nc2-c2ccc(C#N)cc2)cc1` [Example 23, 4-{2-[(3aR,8aS)-decahydropyrro[3,4-d]azepin-6-yl]-5-(4-methylphenyl)pyrimidin-4-yl}benzonitrile], the IC50 in the test with THP-1 (AML) cells and at full-length human LSD1 was less than 100 nM throughout.
On to `CNc1nc(N2CCC(N(C)C)CC2)nc(-c2ccc(C#N)cc2)c1-c1ccc2nn(C)cc2c1` [Example 173, 4-{2-[4-(dimethylamino)piperidin-1-yl]-5-(2-methyl-2H-indazol-5-yl)-6-(methylamino)pyrimidin-4-yl}benzonitrile], for which the IC50 in the test with THP-1 (AML) cells and at full-length human LSD1 was less than 100 nM throughout.
For `N#Cc1ccc(-c2nc(NC[C@H]3CCNC3)ncc2-c2ccc(Cl)cc2)cc1` [Example 19, 4-[5-(4-chlorophenyl)-2-{[(3S)-pyrrolidin-3-ylmethyl]amino}pyrimidin-4-yl]benzonitrile], the figures for the IC50 in the test with THP-1 (AML) cells and at full-length human LSD1 were 100 to 1000 nM and less than 100 nM, respectively.

As a reminder, the IC50 is the concentration that inhibits the measured activity by half.
